Assay results as given in patent publication US20230277534A1 (Plexxikon Inc., priority 2011, published 2023).

Target: B-Raf V600E (Homo sapiens (Human), UniProt P15056, V600E)
Assay: B-Raf V600E kinase biochemical activity assay (AlphaScreen, biotin-MEK1 substrate)
Details: 100 μM ATP
Method: Assays for biochemical and cell based activity are known in the art, for example, as described in PCT publication WO 2007/002433, the disclosure of which is hereby incorporated by reference as it relates to such assays. For example, the biochemical activity IC50 values are determined with respect to inhibition of B-Raf V600E kinase activity or p-Erk kinase activity, where inhibition of phosphorylation of a peptide substrate is measured as a function of compound concentration. Compounds to be tested are diluted in dimethyl sulfoxide to a concentration of 0.1 mM. These are serially diluted 15 μL into 30 μL of dimethyl sulfoxide seven times in 96 well plates for a total of 8 dilution points, and for each dilution point 1 μL is added to a well of an assay plate. Plates are prepared such that each well in a 384 well plate contains 1 μL of compound in 10 μL volume with 0.1 ng Raf enzyme (i.e. any of B-Raf, c-Raf-1 or B-Raf V600E, Upstate Biotechnology or prepared by methods known to one of skill in the art), 50 mM HEPES, pH 7.0, 50 mM NaCl, 2 mM MgCl2, 1 mM MnCl2, 0.01% Tween-20, 1 mM DTT, and 100 nM biotin-MEK1 as substrate. The reaction is started with addition of 10 μL of 200 μM ATP (i.e. final 100 μM ATP). After incubation of the kinase reaction for 45 minutes at room temperature, 5 μL/well of Stop Solution is added (25 mM Hepes pH 7.5, 100 mM EDTA, 0.01% BSA with donor beads (Streptavidin coated beads, Perkin Elmer), acceptor beads (Protein A coated, Perkin Elmer), and anti phosphor MEK1/2 antibody (CellSignal), each at final concentration 10 μg/mL). The plates are incubated for 3 hours at room temperature and read on Envision reader (Perkin Elmer). Phosphorylation of Mek1 results in binding of the anti-phosphor-MEK1/2antibody and association of the donor and acceptor beads such that signal correlates with kinase activity. The signal vs. compound concentration is used to determine the IC50.

B-Raf V600E, sequence (P15056 whole entry V600E): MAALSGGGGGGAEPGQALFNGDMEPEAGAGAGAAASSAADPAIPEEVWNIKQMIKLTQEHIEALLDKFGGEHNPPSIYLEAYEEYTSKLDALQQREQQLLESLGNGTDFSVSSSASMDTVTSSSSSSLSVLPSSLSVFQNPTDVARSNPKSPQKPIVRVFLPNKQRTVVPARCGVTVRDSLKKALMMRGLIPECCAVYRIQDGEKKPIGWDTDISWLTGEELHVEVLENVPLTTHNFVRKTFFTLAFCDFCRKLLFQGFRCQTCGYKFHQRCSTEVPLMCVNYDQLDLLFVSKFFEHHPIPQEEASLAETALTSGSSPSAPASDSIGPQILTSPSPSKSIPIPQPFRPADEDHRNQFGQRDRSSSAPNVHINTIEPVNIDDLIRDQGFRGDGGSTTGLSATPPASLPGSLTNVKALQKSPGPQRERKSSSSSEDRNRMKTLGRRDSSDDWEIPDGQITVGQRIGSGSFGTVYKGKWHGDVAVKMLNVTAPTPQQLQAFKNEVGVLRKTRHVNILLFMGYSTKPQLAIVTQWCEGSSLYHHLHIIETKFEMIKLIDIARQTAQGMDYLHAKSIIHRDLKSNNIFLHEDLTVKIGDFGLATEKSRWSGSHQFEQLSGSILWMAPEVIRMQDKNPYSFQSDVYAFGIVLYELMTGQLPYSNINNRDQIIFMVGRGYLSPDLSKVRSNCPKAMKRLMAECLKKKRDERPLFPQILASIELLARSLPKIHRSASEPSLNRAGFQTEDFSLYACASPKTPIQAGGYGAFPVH

| IC50 | SMILES |
| --- | --- |
| < 0.1 µM | CCN(C)S(=O)(=O)Nc1ccc(F)c(C(=O)c2c[nH]c3ncc(-c4cnc(N5CCN(C(=O)OC(C)(C)C)CC5)nc4)cc23)c1F [Compound P-0264, tert-butyl 4-[5-[3-[3-[[ethyl(methyl)sulfamoyl]amino]-2,6-difluoro-benzoyl]-1H-pyrrolo[2,3-b]pyridin-5-yl]pyrimidin-2-yl]piperazine-1-carboxylate] |
| < 0.1 µM | O=C(c1c(F)ccc(NS(=O)(=O)N2CCCC2)c1F)c1c[nH]c2ncc(-c3cnc(N4CCOCC4)nc3)cc12 [Compound P-0266, N-[2,4-difluoro-3-[5-(2-morpholinopyrimidin-5-yl)-1H-pyrrolo[2,3-b]pyridine-3-carbonyl]phenyl]pyrrolidine-1-sulfonamide] |
| < 0.1 µM | CCN(C)S(=O)(=O)Nc1ccc(F)c(C(=O)c2c[nH]c3ncc(-c4cccc(N(C)C)c4)cc23)c1F [Compound P-0302, 5-[3-(dimethylamino)phenyl]-3-[3-[[ethyl(methyl)sulfamoyl]amino]-2,6-difluoro-benzoyl]-1H-pyrrolo[2,3-b]pyridine] |
| < 0.1 µM | COc1ncc(-c2cnc3[nH]cc(C(=O)c4c(F)ccc(NS(=O)(=O)N5CCCC5)c4F)c3c2)s1 [Compound P-0270, N-[2,4-difluoro-3-[5-(2-methoxythiazol-5-yl)-1H-pyrrolo[2,3-b]pyridine-3-carbonyl]phenyl]pyrrolidine-1-sulfonamide] |
| < 0.1 µM | O=C(c1c(F)ccc(NS(=O)(=O)N2CCCC2)c1F)c1c[nH]c2ncc(-c3cc(C(F)(F)F)ncn3)cc12 [Compound P-0294, N-[2,4-difluoro-3-[5-[6-(trifluoromethyl)pyrimidin-4-yl]-1H-pyrrolo[2,3-b]pyridine-3-carbonyl]phenyl]pyrrolidine-1-sulfonamide] |
| > 0.1 µM | CNC1CCN(S(=O)(=O)Nc2cccc(C(=O)c3c[nH]c4ncc(-c5cnc(C6CC6)nc5)cc34)c2F)C1 (centres unmarked) [Compound P-0272, N-[3-[5-(2-cyclopropylpyrimidin-5-yl)-1H-pyrrolo[2,3-b]pyridine-3-carbonyl]-2-fluoro-phenyl]-3-(methylamino)pyrrolidine-1-sulfonamide] |
| < 0.1 µM | CN1CCN(c2cc(-c3cnc4[nH]cc(C(=O)c5c(F)ccc(NS(=O)(=O)N6CCCC6)c5F)c4c3)ncn2)CC1 [Compound P-0319, N-[2,4-difluoro-3-[5-[6-(4-methylpiperazin-1-yl)pyrimidin-4-yl]-1H-pyrrolo[2,3-b]pyridine-3-carbonyl]phenyl]pyrrolidine-1-sulfonamide] |
| > 0.1 µM | C[C@H]1CCN(S(=O)(=O)Nc2ccc(F)c(C(=O)c3c[nH]c4ncc(-c5cnc(C6CC6)nc5)cc34)c2F)C1 [Compound P-0320, (3S)—N-[3-[5-(2-cyclopropylpyrimidin-5-yl)-1H-pyrrolo[2,3-b]pyridine-3-carbonyl]-2,4-difluoro-phenyl]-3-methyl-pyrrolidine-1-sulfonamide] |
| > 0.1 µM | COC(=O)C(C)S(=O)(=O)Nc1cccc(C(=O)c2c[nH]c3ncc(-c4cnc(C5CC5)nc4)cc23)c1F (centres unmarked) [Compound P-0291, methyl 2-[[3-[5-(2-cyclopropylpyrimidin-5-yl)-1H-pyrrolo[2,3-b]pyridine-3-carbonyl]-2-fluoro-phenyl]sulfamoyl]propanoate] |
| < 0.1 µM | CCN(C)S(=O)(=O)Nc1ccc(F)c(C(=O)c2c[nH]c3ncc(-c4ccc(C(=O)NC5CC5)nc4)cc23)c1F [Compound P-0312, N-cyclopropyl-5-[3-[3-[[ethyl(methyl)sulfamoyl]amino]-2,6-difluoro-benzoyl]-1H-pyrrolo[2,3-b]pyridin-5-yl]pyridine-2-carboxamide] |

Further lines, the compound ahead of its results:

| SMILES | IC50 |
| --- | --- |
| COc1ncc(-c2cnc3[nH]cc(C(=O)c4cccc(NS(=O)(=O)N(C)CC5CC5)c4F)c3c2)cn1 [Compound P-0083, 3-[3-[[cyclopropylmethyl(methyl)sulfamoyl]amino]-2-fluoro-benzoyl]-5-(2-methoxypyrimidin-5-yl)-1H-pyrrolo[2,3-b]pyridine] | < 0.1 µM |
| CN(C)S(=O)(=O)Nc1cccc(C(=O)c2c[nH]c3ncc(-c4ccc(C(C)(C)O)cc4)cc23)c1F [Compound P-0103, 3-[3-(dimethylsulfamoylamino)-2-fluoro-benzoyl]-5-[4-(1-hydroxy-1-methyl-ethyl)phenyl]-1H-pyrrolo[2,3-b]pyridine] | < 0.1 µM |
| N#Cc1ncc(-c2cnc3[nH]cc(C(=O)c4cccc(NS(=O)(=O)N5CCCC5)c4F)c3c2)cn1 [Compound P-0091, N-[3-[5-(2-cyanopyrimidin-5-yl)-1H-pyrrolo[2,3-b]pyridine-3-carbonyl]-2-fluoro-phenyl]pyrrolidine-1-sulfonamide] | < 0.1 µM |
| COC(=O)CCS(=O)(=O)Nc1cccc(C(=O)c2c[nH]c3ncc(-c4cnc(OC)nc4)cc23)c1F [Compound P-0066, methyl 3-[[2-fluoro-3-[5-(2-methoxypyrimidin-5-yl)-1H-pyrrolo[2,3-b]pyridine-3-carbonyl]phenyl]sulfamoyl]propanoate] | < 0.1 µM |
| CN(C)S(=O)(=O)Nc1cccc(C(=O)c2c[nH]c3ncc(-c4ccc(C(C)(C)C#N)cc4)cc23)c1F [Compound P-0245, 5-[4-(1-cyano-1-methyl-ethyl)phenyl]-3-[3-(dimethylsulfamoylamino)-2-fluoro-benzoyl]-1H-pyrrolo[2,3-b]pyridine] | < 0.1 µM |
| CN(C)S(=O)(=O)Nc1ccc(F)c(C(=O)c2c[nH]c3ncc(-c4ccc(C(C)(C)C#N)cc4)cc23)c1F [Compound P-0255, 5-[4-(1-cyano-1-methyl-ethyl)phenyl]-3-[3-(dimethylsulfamoylamino)-2,6-difluoro-benzoyl]-1H-pyrrolo[2,3-b]pyridine] | < 0.1 µM |
| COC(=O)C1(c2ccc(-c3cnc4[nH]cc(C(=O)c5cccc(NS(=O)(=O)N6CCCC6)c5F)c4c3)cc2)CC1 [Compound P-0254, methyl 1-[4-[3-[2-fluoro-3-(pyrrolidin-1-ylsulfonylamino)benzoyl]-1H-pyrrolo[2,3-b]pyridin-5-yl]phenyl]cyclopropanecarboxylate] | < 0.1 µM |
| CCCNS(=O)(=O)Nc1cccc(C(=O)c2c[nH]c3ncc(C)cc23)c1F [Compound P-0223, [2-fluoro-3-(propylsulfamoylamino)phenyl]-(5-methyl-1H-pyrrolo[2,3-b]pyridin-3-yl)methanone] | > 0.1 µM |
| COc1ncc(-c2cnc3[nH]cc(C(=O)c4cccc(NS(=O)(=O)C5CC5)c4F)c3c2)cn1 [Compound P-0067, N-[2-fluoro-3-[5-(2-methoxypyrimidin-5-yl)-1H-pyrrolo[2,3-b]pyridine-3-carbonyl]phenyl]cyclopropanesulfonamide] | < 0.1 µM |
| COc1ncc(-c2cnc3[nH]cc(C(=O)c4cccc(NS(=O)(=O)N(C)C(C)C)c4F)c3c2)cn1 [Compound P-0075, 3-[2-fluoro-3-[[isopropyl(methyl)sulfamoyl]amino]benzoyl]-5-(2-methoxypyrimidin-5-yl)-1H-pyrrolo[2,3-b]pyridine] | > 0.1 µM |
| CN(C)S(=O)(=O)Nc1cccc(C(=O)c2c[nH]c3ncc(-c4cnc(C#N)nc4)cc23)c1F [Compound P-0096, 5-(2-cyanopyrimidin-5-yl)-3-[3-(dimethylsulfamoylamino)-2-fluoro-benzoyl]-1H-pyrrolo[2,3-b]pyridine] | < 0.1 µM |
| CCCN(C)S(=O)(=O)Nc1cccc(C(=O)c2c[nH]c3ncc(-c4cnc(NC5CC5)nc4)cc23)c1F [Compound P-0082, 5-[2-(cyclopropylamino)pyrimidin-5-yl]-3-[2-fluoro-3-[[methyl(propyl)sulfamoyl]amino]benzoyl]-1H-pyrrolo[2,3-b]pyridine] | < 0.1 µM |
| CCCN(C)S(=O)(=O)Nc1ccc(F)c(C(=O)c2c[nH]c3ncc(-c4ccc(C5(C#N)CC5)cc4)cc23)c1F [Compound P-0079, 5-[4-(1-cyanocyclopropyl)phenyl]-3-[2,6-difluoro-3-[[methyl(propyl)sulfamoyl]amino]benzoyl]-1H-pyrrolo[2,3-b]pyridine] | < 0.1 µM |
| CCCN(C)S(=O)(=O)Nc1cccc(C(=O)c2c[nH]c3ncc(-c4cnc(C5CC5)nc4)cc23)c1F [Compound P-0086, 5-(2-cyclopropylpyrimidin-5-yl)-3-[2-fluoro-3-[[methyl(propyl)sulfamoyl]amino]benzoyl]-1H-pyrrolo[2,3-b]pyridine] | < 0.1 µM |
| CC(C)(O)c1ccc(-c2cnc3[nH]cc(C(=O)c4cccc(NS(=O)(=O)N5CCCC5)c4F)c3c2)cc1 [Compound P-0105, N-[2-fluoro-3-[5-[4-(1-hydroxy-1-methyl-ethyl)phenyl]-1H-pyrrolo[2,3-b]pyridine-3-carbonyl]phenyl]pyrrolidine-1-sulfonamide] | < 0.1 µM |
| CCN(C)S(=O)(=O)Nc1cccc(C(=O)c2c[nH]c3ncc(-c4ccc(C5CC5)nc4)cc23)c1F [Compound P-0087, 5-(6-cyclopropyl-3-pyridyl)-3-[3-[[ethyl(methyl)sulfamoyl]amino]-2-fluoro-benzoyl]-1H-pyrrolo[2,3-b]pyridine] | < 0.1 µM |
